Data as given in patent US6592910B1, “Methods of treating clinical diseases with isoflavones” (Board of Trustees, Southern Illinois University, priority 1999, dated 2003).
Marks after values point to notes of the source that are not given here.

What was measured:
male Sprague-Dawley rats [1] = test: Feed and weight measurements in male Sprague-Dawley rats injected for 6 weeks; assay type: in vivo, rat; conditions: for Fat Weight: visceral fat
Method: (§1) Forty male Sprague-Dawley rats (5 wk old, n=9-10 rats/treatment, from Harlan Sprague-Dawley, Inc., Indianapolis, Ind.) were injected with either genistein (G), daidzein (D), estradiol (E), or a vehicle control (V). Each animal in group V received a daily 0.1 cc subcutaneous injection, for six weeks, of a 10% ethanol-90% olive oil solution; the other treatments received their respective compound as a daily 0.1 cc subcutaneous injection, for six weeks, e.g., 0.1 μg of compound/g of body weight, in a 10% ethanol-90% olive oil solution.
Animal weight and feed intake were measured weekly during the six week study, and the subsequent feed-efficiency ratio [FER (g of weight change/g of feed intake)] was determined. Following sacrifice, the abdominal fat pads, liver, and reproductive organs were removed and weighed for comparison.
(§2) These studies used a randomized design. All data were analyzed by one-way analysis of variance (ANOVA) and post-hoc comparisons were made with Tukey pairwise comparisons test. Significance was confirmed at P≦0.05 (SYSTAT 7.0, SPSS INC., 1997), and all values are reported as means±standard error of the mean.

male Sprague-Dawley rats [2] = test: Liver weight, cholesterol and triglyceride in male Sprague-Dawley rats injected for 6 weeks; assay type: in vivo, rat; conditions: for Liver total triglycerides: as triolein; for Liver total triglycerides / Liver cholesteryl esters / Liver total cholesterol / Liver unesterified cholesterol / Liver weight: daily s.c. injection, 6 weeks; for liver weight as a % of body weight, compared with V: rat, in vivo
Method: (§3) Forty male Sprague-Dawley rats (5 wk old, n=9-10 rats/treatment, from Harlan Sprague-Dawley, Inc., Indianapolis, Ind.) were injected with either genistein (G), daidzein (D), estradiol (E), or a vehicle control (V). Each animal in group V received a daily 0.1 cc subcutaneous injection, for six weeks, of a 10% ethanol-90% olive oil solution; the other treatments received their respective compound as a daily 0.1 cc subcutaneous injection, for six weeks, e.g., 0.1 μg of compound/g of body weight, in a 10% ethanol-90% olive oil solution. Animal weight and feed intake were measured weekly during the six week study, and the subsequent feed-efficiency ratio [FER (g of weight change/g of feed intake)] was determined. Following sacrifice, the abdominal fat pads, liver, and reproductive organs were removed and weighed for comparison. Collected blood was heparinized and centrifuged, plasma aliquots were then used for glucose and total cholesterol determinations, using standard glucose oxidase (Fisher Scientific, St. Louis, Mo.) and cholesterol kits (Fisher Scientific, St. Louis, Mo.). Liver cholesterol and triglyceride analysis. Analytical procedures for determination of liver total cholesterol, unesterified cholesterol, cholesteryl ester, and triglyceride concentrations were as described in Example 1. These studies used a randomized design. All data were analyzed by one-way analysis of variance (ANOVA) and post-hoc comparisons were made with Tukey pairwise comparisons test. Significance was confirmed at P≦0.05 (SYSTAT 7.0, SPSS INC., 1997), and all values are reported as means±standard error of the mean.

[3] = tested on: Cu,Zn superoxide Dimutase (SOD); test: Liver Cu,Zn superoxide dimutase activity in injected rats; assay type: in vivo, rat; conditions: daily s.c. injection, 6 weeks; P<0.05
Method: as §1
The activity or level of antioxidant enzymes (AOE), catalase (CAT) and Cu,Zn superoxide Dimutase (SOD) in rat liver, were measured to determine the effect of administration of G, D, and E injections on free radical defense systems. A 50 mg piece of whole frozen liver was removed and sonicated in TBS plus 1% Triton X-100. The samples were then centrifuged at 13,000×g for 25 min at 4° C., and the supernatant was collected. Total protein concentration was assayed for subsequent determinations of hepatic AOE activity or absolute level per milligram total protein. SOD activity was determined by spectrophotometry at I=560 nm using xanthine/xanthine oxidase as a superoxide generator and measured against a standard curve of known SOD activities (Sun et al. 1988, 1994). Catalase levels were determined bv Slot blot, which was performed following a representative Western blot that detected no nonspecific binding (Tobin et al. 1979). The bands corresponding to catalase were quantified by densitometry.
as §2

male Sprague-Dawley rats [4] = test: Plasma glucose and plasma total cholesterol in male Sprague-Dawley rats injected for 6 weeks; assay type: in vivo, rat; conditions: 6 weeks injection
Method: as §3, with “solution.” for “solution. Animal weight and feed intake were measured weekly during the six week study, and the subsequent feed-efficiency ratio [FER (g of weight change/g of feed intake)] was determined. Following sacrifice, the abdominal fat pads, liver, and reproductive organs were removed and weighed for comparison.”

[5] = tested on: stenotic arteries of female macaques; conditions: intravenous infusion; cited from earlier work

Body, testis, and prostate weight compared to D, G, and V treated animals (male Sprague-Dawley rats [1]; rat, in vivo)	Prostate Weight (male Sprague-Dawley rats [1]; daily s.c. injection, 6 weeks)	Testis Weight (male Sprague-Dawley rats [1]; daily s.c. injection, 6 weeks)	SMILES	Body Weight (male Sprague-Dawley rats [1]; daily s.c. injection, 6 weeks)	Fat Weight (male Sprague-Dawley rats [1]; daily s.c. injection, 6 weeks)	Liver triglyceride concentrations compared to the E treatment (male Sprague-Dawley rats [2]; P<0.05)	Liver weights vs the V group (male Sprague-Dawley rats [2]; P<0.05)	Liver total triglycerides (male Sprague-Dawley rats [2])	Liver cholesteryl esters (male Sprague-Dawley rats [2])	Liver total cholesterol (male Sprague-Dawley rats [2])	Liver unesterified cholesterol (male Sprague-Dawley rats [2])	Liver weight (male Sprague-Dawley rats [2])	liver weight as a % of body weight, compared with V (male Sprague-Dawley rats [2])	elevation of liver SOD activity over vehicle controls [3]	plasma cholesterol levels vs the V group (male Sprague-Dawley rats [4])	vasoconstriction in stenotic arteries [5]
–	–	–	O=c1c(-c2ccc(O)cc2)coc2cc(O)ccc12 [D, daidzein]	367.89 g	11.66 g	significantly (P<0.05) lower	considerably (P<0.05) lower	17.980 μmol/g liver	3.114 μmol/g liver	5.678 μmol/g liver	2.563 μmol/g liver	12.857^a g	reduction in relative liver mass	approximately 33%	–	–
markedly (P<0.05) lower	–	–	C[C@]12CC[C@@H]3c4ccc(O)cc4CC[C@H]3[C@@H]1CC[C@@H]2O [E, estradiol, reference compound]	242.50^a,b,c g	6.71^a,b,c g	–	–	32.186^c μmol/g liver	4.104^a,b μmol/g liver	6.722^a,b,c μmol/g liver	2.618 μmol/g liver	10.487^a,b,c g	–	approximately 33%	–	–
–	.732 g	2.90 g	O=c1c(-c2ccc(O)cc2)coc2cc(O)cc(O)c12 [G, genistein]	363.00 g	11.19 g	–	considerably (P<0.05) lower	29.528 μmol/g liver	2.589 μmol/g liver	5.189 μmol/g liver	2.600 μmol/g liver	12.970^a g	reduction in relative liver mass	15%	non-significant trend (P<0.5) toward lower	rapid inhibition
